Test results published in the NIST ThermoML archive (doi:10.1021/je800110r).
Several values for one entry are separate records, joined by “and”; a condition that tells them apart may be missing. Equal entries are not always repeated.

Settings: 293.15 K, Liquid, Vibrating tube method

CCCCCCCCCC [decane]
Settings | mass density
375 kPa | 730.1 kg/m3
394 kPa | 730.1 kg/m3
411 kPa | 730.1 kg/m3
427 kPa | 730.1 kg/m3
448 kPa | 730.1 kg/m3
469 kPa | 730.1 kg/m3
487 kPa | 730.1 kg/m3
510 kPa | 730.2 kg/m3
528 kPa | 730.3 kg/m3
551 kPa | 730.3 kg/m3
571 kPa | 730.3 kg/m3
605 kPa | 730.4 kg/m3
692 kPa | 730.3 kg/m3
760 kPa | 730.4 kg/m3
843 kPa | 730.5 kg/m3
898 kPa | 730.6 kg/m3
949 kPa | 730.5 kg/m3
998 kPa | 730.6 kg/m3
1057 kPa | 730.6 kg/m3
1102 kPa | 730.7 kg/m3
1141 kPa | 730.7 kg/m3
1165 kPa | 730.8 kg/m3
1196 kPa | 730.7 kg/m3
1214 kPa | 730.7 kg/m3
1243 kPa | 730.8 kg/m3
1266 kPa | 730.8 kg/m3
1302 kPa | 730.9 kg/m3
1332 kPa | 730.8 kg/m3
1362 kPa | 730.9 kg/m3
1397 kPa | 730.9 kg/m3
1430 kPa | 730.9 kg/m3
1459 kPa | 730.9 kg/m3
1493 kPa | 731 kg/m3
1535 kPa | 731.1 kg/m3
1567 kPa | 731.1 kg/m3
1623 kPa | 731 kg/m3
1669 kPa | 731.1 kg/m3
1712 kPa | 731.2 kg/m3
1762 kPa | 731.3 kg/m3
1802 kPa | 731.2 kg/m3
1843 kPa | 731.3 kg/m3
1915 kPa | 731.4 kg/m3
1974 kPa | 731.3 kg/m3
2021 kPa | 731.5 kg/m3
2094 kPa | 731.4 kg/m3
2187 kPa | 731.5 kg/m3
2240 kPa | 731.6 kg/m3
2295 kPa | 731.6 kg/m3
2363 kPa | 731.7 kg/m3
2423 kPa | 731.7 kg/m3
2496 kPa | 731.7 kg/m3
2561 kPa | 731.9 kg/m3
2629 kPa | 731.9 kg/m3
2700 kPa | 731.8 kg/m3
2720 kPa | 732.1 kg/m3
2731 kPa | 732 kg/m3
2742 kPa | 732 kg/m3
2755 kPa | 732 kg/m3
2770 kPa | 732 kg/m3
2785 kPa | 731.9 kg/m3
2795 kPa | 732 kg/m3
2813 kPa | 732 kg/m3
2824 kPa | 732 kg/m3
2834 kPa | 732 kg/m3
2851 kPa | 732.1 kg/m3
2884 kPa | 732 kg/m3
2939 kPa | 732.1 kg/m3
3009 kPa | 732.1 kg/m3
3026 kPa | 732.2 kg/m3
3040 kPa | 732.2 kg/m3
3052 kPa | 732.1 kg/m3
3064 kPa | 732.2 kg/m3
3077 kPa | 732.2 kg/m3
3094 kPa | 732.3 kg/m3
3109 kPa | 732.1 kg/m3
3122 kPa | 732.3 kg/m3
3136 kPa | 732.1 kg/m3
3147 kPa | 732.3 kg/m3
3155 kPa | 732.2 kg/m3
3188 kPa | 732.2 kg/m3
3283 kPa | 732.4 kg/m3
3344 kPa | 732.4 kg/m3
3442 kPa | 732.5 kg/m3
3479 kPa | 732.4 kg/m3
3494 kPa | 732.5 kg/m3
3506 kPa | 732.5 kg/m3
3529 kPa | 732.6 kg/m3
3551 kPa | 732.6 kg/m3
3564 kPa | 732.6 kg/m3
3584 kPa | 732.6 kg/m3
3599 kPa | 732.7 kg/m3
3619 kPa | 732.7 kg/m3
3635 kPa | 732.7 kg/m3
3653 kPa | 732.6 kg/m3
3672 kPa | 732.8 kg/m3
3690 kPa | 732.6 kg/m3
3705 kPa | 732.8 kg/m3
3719 kPa | 732.7 kg/m3
3735 kPa | 732.8 kg/m3
3748 kPa | 732.6 kg/m3
3764 kPa | 732.8 kg/m3
3781 kPa | 732.7 kg/m3
3793 kPa | 732.9 kg/m3
3810 kPa | 732.7 kg/m3
3829 kPa | 732.9 kg/m3
3842 kPa | 732.8 kg/m3
3861 kPa | 732.8 kg/m3
3881 kPa | 732.8 kg/m3
3894 kPa | 732.8 kg/m3
3916 kPa | 732.9 kg/m3
3929 kPa | 732.9 kg/m3
3952 kPa | 732.9 kg/m3
3964 kPa | 732.9 kg/m3
3984 kPa | 733 kg/m3
4001 kPa | 733 kg/m3
4012 kPa | 733 kg/m3
4029 kPa | 733 kg/m3
4046 kPa | 733 kg/m3
4060 kPa | 733 kg/m3
4084 kPa | 733 kg/m3
4099 kPa | 733 kg/m3
4117 kPa | 733 kg/m3
4130 kPa | 733.1 kg/m3
4150 kPa | 733.2 kg/m3
4166 kPa | 733 kg/m3
4190 kPa | 733 kg/m3
4211 kPa | 733 kg/m3
4226 kPa | 733.1 kg/m3
4247 kPa | 733.1 kg/m3
4269 kPa | 733.3 kg/m3
4281 kPa | 733.1 kg/m3
4302 kPa | 733.2 kg/m3
4323 kPa | 733.1 kg/m3
4338 kPa | 733.2 kg/m3
4361 kPa | 733.3 kg/m3
4382 kPa | 733.2 kg/m3
4401 kPa | 733.2 kg/m3
4420 kPa | 733.3 kg/m3
4439 kPa | 733.3 kg/m3
4450 kPa | 733.5 kg/m3
4464 kPa | 733.3 kg/m3
4478 kPa | 733.3 kg/m3
4500 kPa | 733.3 kg/m3
4518 kPa | 733.3 kg/m3
4530 kPa | 733.3 kg/m3
4544 kPa | 733.3 kg/m3
4558 kPa | 733.4 kg/m3
4571 kPa | 733.3 kg/m3
4586 kPa | 733.3 kg/m3
4595 kPa | 733.3 kg/m3
4616 kPa | 733.5 kg/m3
4637 kPa | 733.4 kg/m3
4652 kPa | 733.4 kg/m3
4671 kPa | 733.3 kg/m3
4685 kPa | 733.6 kg/m3
4705 kPa | 733.4 kg/m3
4728 kPa | 733.4 kg/m3
4742 kPa | 733.5 kg/m3
4760 kPa | 733.5 kg/m3
4773 kPa | 733.5 kg/m3
4795 kPa | 733.7 kg/m3
4810 kPa | 733.6 kg/m3
4831 kPa | 733.5 kg/m3
4849 kPa | 733.6 kg/m3
4877 kPa | 733.5 kg/m3
4901 kPa | 733.6 kg/m3
4914 kPa | 733.7 kg/m3
4937 kPa | 733.6 kg/m3
4953 kPa | 733.7 kg/m3
4976 kPa | 733.7 kg/m3
4996 kPa | 733.6 kg/m3
5014 kPa | 733.8 kg/m3
5029 kPa | 733.7 kg/m3
5053 kPa | 733.7 kg/m3
5076 kPa | 733.8 kg/m3
5091 kPa | 733.8 kg/m3
5103 kPa | 733.9 kg/m3
5127 kPa | 733.8 kg/m3
5148 kPa | 733.7 kg/m3
5166 kPa | 733.9 kg/m3
5187 kPa | 733.8 kg/m3
5202 kPa | 733.8 kg/m3
5220 kPa | 733.9 kg/m3
5234 kPa | 733.8 kg/m3
5248 kPa | 733.9 kg/m3
5264 kPa | 733.9 kg/m3
5278 kPa | 733.9 kg/m3
5297 kPa | 733.8 kg/m3
5299 kPa | 733.9 kg/m3
5304 kPa | 733.9 kg/m3
5315 kPa | 733.9 kg/m3
5319 kPa | 733.9 kg/m3
5329 kPa | 733.9 kg/m3
5335 kPa | 734 kg/m3
5346 kPa | 734 kg/m3
5352 kPa | 734 kg/m3
5362 kPa | 733.9 kg/m3
5375 kPa | 734 kg/m3
5393 kPa | 733.9 kg/m3
5395 kPa | 734 kg/m3
5409 kPa | 733.9 kg/m3
5422 kPa | 734 kg/m3
5424 kPa | 734.1 kg/m3
5440 kPa | 734 kg/m3
5459 kPa | 734 kg/m3
5475 kPa | 734.1 kg/m3
5492 kPa | 734 kg/m3
5508 kPa | 734 kg/m3
5522 kPa | 734 kg/m3
5541 kPa | 734.1 kg/m3
5556 kPa | 734.1 kg/m3
5570 kPa | 734.1 kg/m3
5592 kPa | 734.1 kg/m3
5612 kPa | 734.2 kg/m3
5626 kPa | 734.2 kg/m3
5643 kPa | 734.2 kg/m3
5656 kPa | 734.2 kg/m3
5676 kPa | 734.3 kg/m3
5696 kPa | 734.2 kg/m3
5714 kPa | 734.1 kg/m3
5734 kPa | 734.3 kg/m3
5753 kPa | 734.2 kg/m3
5771 kPa | 734.3 kg/m3
5792 kPa | 734.3 kg/m3
5808 kPa | 734.4 kg/m3
5824 kPa | 734.4 kg/m3
5839 kPa | 734.4 kg/m3
5858 kPa | 734.4 kg/m3
5880 kPa | 734.4 kg/m3
5902 kPa | 734.3 kg/m3
5918 kPa | 734.4 kg/m3
5937 kPa | 734.3 kg/m3
5957 kPa | 734.4 kg/m3
5977 kPa | 734.5 kg/m3
5992 kPa | 734.4 kg/m3
6012 kPa | 734.5 kg/m3
6035 kPa | 734.5 kg/m3
6050 kPa | 734.6 kg/m3
6077 kPa | 734.6 kg/m3
6097 kPa | 734.6 kg/m3
6112 kPa | 734.6 kg/m3
6135 kPa | 734.5 kg/m3
6161 kPa | 734.6 kg/m3
6198 kPa | 734.7 kg/m3
6243 kPa | 734.6 kg/m3
6254 kPa | 734.6 kg/m3
6257 kPa | 734.6 kg/m3
6259 kPa | 734.7 kg/m3
6262 kPa | 734.6 kg/m3
6265 kPa | 734.6 kg/m3
6266 kPa | 734.7 kg/m3 and 734.6 kg/m3
6267 kPa | 734.6 kg/m3
6268 kPa | 734.6 kg/m3
6278 kPa | 734.7 kg/m3
6299 kPa | 734.6 kg/m3
6320 kPa | 734.6 kg/m3
6344 kPa | 734.7 kg/m3
6362 kPa | 734.7 kg/m3
6383 kPa | 734.7 kg/m3
6411 kPa | 734.9 kg/m3
6436 kPa | 734.7 kg/m3
6451 kPa | 734.7 kg/m3
6476 kPa | 734.8 kg/m3
6502 kPa | 734.9 kg/m3
6521 kPa | 734.8 kg/m3
6550 kPa | 734.8 kg/m3
6573 kPa | 734.8 kg/m3
6596 kPa | 734.8 kg/m3
6622 kPa | 734.9 kg/m3
6642 kPa | 734.8 kg/m3
6665 kPa | 735 kg/m3
6692 kPa | 734.9 kg/m3
6725 kPa | 735 kg/m3
